Assay results taken from ChEMBL document CHEMBL1131939, “The synthesis and P388 cytotoxicity of mycalazol 11 and related 5-acyl-2-hydroxymethylpyrroles” (1999).
Converted amounts (≈) assume the structure as drawn.

Tested on: P388
Experiment: In vitro cytotoxicity against the P388 murine leukemia cell line was determined
Assay type: functional
Settings: Mus musculus, read-out: ID50 (the source's name)

Work on CCCCCCCCCCCCCCCCCCC(=O)c1ccc(CO)[nH]1 yielded an IC50 of 24 µg/mL (≈ 63.6 µM).
Compound CCCCCC(=O)c1ccc(CO)[nH]1 has an IC50 of 78 µg/mL (≈ 399 µM).
CCCCCCCCCCCCC(=O)c1ccc(CO)[nH]1 was tested, and the IC50 was 52 µg/mL (≈ 177 µM).
CCCCCCCCCCCC(=O)c1ccc(CO)[nH]1 gave an IC50 of 21 µg/mL (≈ 75.2 µM).
